Source: article PMC9631343 (ACS Bio & Med Chem Au, 2022)

Test system: SARS-CoV-2 (Omicron variant, B.1.1.529.1/BA.1 sublineage)
Assay type: cell-based

Structure (SMILES): OC[C@H]1O[C@@H](n2cnc3c(N[C@@H]4CCOC4)ncnc32)[C@H](O)[C@@H]1O [tecadenoson]
- 100% CPE inhibitory concentration (CPEIC100): 7.65 ± 0.25 µM
